Measurements published in ChEMBL document CHEMBL1201862, “PubChem BioAssay data set” (2004).
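Dose response: 5 concentrations. Exposure: 48 h. Format: 96-well plates. Endpoint: linear interpolation; highest concentration if not reached. At the GI50, growth is halved.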 The source made the active and inactive calls. No stated cut-off is given here; in the data, active = GI50 up to about 1.1 µM and inactive = higher.

Columns and labels:
Test in all cases: NCI-60 cell line screen, 48 h
CCRF-CEM = test system: CCRF-CEM
COLO 205 = test system: COLO 205
HCC 2998 = test system: HCC 2998
HCT-116 = test system: HCT-116
HCT-15 = test system: HCT-15
HL-60 = test system: HL-60
K562 = test system: K562
KM12 = test system: KM12
LOX IMVI = test system: LOX IMVI
MOLT-4 = test system: MOLT-4
SF-268 = test system: SF-268
SF-539 = test system: SF-539
SK-MEL-2 = test system: SK-MEL-2
SK-OV-3 = test system: SK-OV-3
SW-620 = test system: SW-620
HOP-62 = test system: HOP-62
NCI-H23 = test system: NCI-H23
OVCAR-8 = test system: OVCAR-8
U-251 = test system: U-251
OVCAR-4 = test system: OVCAR-4

| Compound | GI50 (CCRF-CEM) | GI50 (COLO 205) | GI50 (HCC 2998) | GI50 (HCT-116) | GI50 (HCT-15) [µM] | GI50 (HL-60) | GI50 (K562) | GI50 (KM12) | GI50 (LOX IMVI) | GI50 (MOLT-4) | GI50 (SF-268) | GI50 (SF-539) | GI50 (SK-MEL-2) | GI50 (SK-OV-3) | GI50 (SW-620) | GI50 (HOP-62) | GI50 (NCI-H23) | GI50 (OVCAR-8) | GI50 (U-251) | GI50 (OVCAR-4) |
| --- | --- | --- | --- | --- | --- | --- | --- | --- | --- | --- | --- | --- | --- | --- | --- | --- | --- | --- | --- | --- |
| Cc1cccc(C(C)C)c1NC(=O)/C(Cc1c([N+](=O)[O-])cccc1[N+](=O)[O-])=N/NC(=O)CC#N | > 100 µM (inactive) | > 100 µM (inactive) | > 100 µM (inactive) | > 100 µM (inactive) | > 100 | > 100 µM (inactive) | > 100 µM (inactive) | > 100 µM (inactive) | > 100 µM (inactive) | > 100 µM (inactive) | > 100 µM (inactive) | > 100 µM (inactive) | > 100 µM (inactive) | > 100 µM (inactive) | > 100 µM (inactive) | – | – | – | – | – |
| Cn1cc(NC(=O)[C@H]2CCC(N)=N2)cc1C(=O)NCCC(=N)N | > 100 µM (inactive) | > 100 µM (inactive) | > 100 µM (inactive) | > 100 µM (inactive) | – | > 100 µM (inactive) | > 100 µM (inactive) | > 100 µM (inactive) | > 100 µM (inactive) | > 100 µM (inactive) | > 100 µM (inactive) | > 100 µM (inactive) | > 100 µM (inactive) | > 100 µM (inactive) | > 100 µM (inactive) | > 100 µM (inactive) | > 100 µM (inactive) | > 100 µM (inactive) | > 100 µM (inactive) | – |
| COc1ccc(-c2c3c(nc4nc(SCCc5ccccc5)nc(N)c24)CCCC3)cc1OC | > 100 µM (inactive) | > 100 µM (inactive) | – | > 100 µM (inactive) | > 100 | > 100 µM (inactive) | > 100 µM (inactive) | > 100 µM (inactive) | > 100 µM (inactive) | > 100 µM (inactive) | > 100 µM (inactive) | 85.7 µM (inactive) | – | > 100 µM (inactive) | > 100 µM (inactive) | 90.8 µM (inactive) | > 100 µM (inactive) | > 100 µM (inactive) | > 100 µM (inactive) | 75.7 µM (inactive) |
| CC1CC/C(=C\c2ccc(Cl)cc2)C(=O)/C1=C\c1ccc(Cl)cc1 (stereo unspecified) | 41.9 µM (inactive) | 32.1 µM (inactive) | – | 32.6 µM (inactive) | 22.4 | – | 41 µM (inactive) | 18.7 µM (inactive) | 31.8 µM (inactive) | – | 34.2 µM (inactive) | – | 20.4 µM (inactive) | > 100 µM (inactive) | 41.3 µM (inactive) | 25.6 µM (inactive) | – | 30.1 µM (inactive) | 39.9 µM (inactive) | – |
| c1ccc2c(c1)CCCC/C2=N/OCC1CO1 (stereo unspecified) | 46.5 µM (inactive) | 48.8 µM (inactive) | > 100 µM (inactive) | 45 µM (inactive) | > 100 | 21.4 µM (inactive) | 41.2 µM (inactive) | 35.9 µM (inactive) | 32.9 µM (inactive) | 32.1 µM (inactive) | 58.3 µM (inactive) | > 100 µM (inactive) | > 100 µM (inactive) | – | 63.4 µM (inactive) | – | 41.8 µM (inactive) | 45.7 µM (inactive) | 72.3 µM (inactive) | – |
| COc1ccc(/N=C(\C)c2ccncc2)cc1 | > 100 µM (inactive) | > 100 µM (inactive) | > 100 µM (inactive) | > 100 µM (inactive) | 32.1 | – | > 100 µM (inactive) | > 100 µM (inactive) | > 100 µM (inactive) | > 100 µM (inactive) | 50.6 µM (inactive) | 21 µM (inactive) | > 100 µM (inactive) | > 100 µM (inactive) | 86.5 µM (inactive) | > 100 µM (inactive) | 89.3 µM (inactive) | > 100 µM (inactive) | > 100 µM (inactive) | > 100 µM (inactive) |
| CCOC(=O)c1cc(C2CCN(Cc3ccccc3)C2=S)c(C(=O)C=[N+]=[N-])[nH]1 (stereo unspecified) | 13.4 µM (inactive) | 33.8 µM (inactive) | 49.7 µM (inactive) | 40.5 µM (inactive) | 19.5 | – | 64.6 µM (inactive) | 55.5 µM (inactive) | – | 30.4 µM (inactive) | 25.8 µM (inactive) | – | 21.2 µM (inactive) | > 100 µM (inactive) | 38.6 µM (inactive) | 51.4 µM (inactive) | 21.7 µM (inactive) | 37.3 µM (inactive) | 25.3 µM (inactive) | 54.7 µM (inactive) |
| O=C(O)C1=CNC(C(=O)O)=NN1 | > 100 µM (inactive) | > 100 µM (inactive) | – | > 100 µM (inactive) | > 100 | > 100 µM (inactive) | > 100 µM (inactive) | > 100 µM (inactive) | – | > 100 µM (inactive) | > 100 µM (inactive) | > 100 µM (inactive) | > 100 µM (inactive) | > 100 µM (inactive) | > 100 µM (inactive) | > 100 µM (inactive) | > 100 µM (inactive) | > 100 µM (inactive) | > 100 µM (inactive) | > 100 µM (inactive) |
